From PubChem BioAssay (NCI)
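These data come from cells grown in 96-well plates and exposed to compound for 48 hours at five concentrations. GI50 = concentration required for 50% inhibition of growth. TGI: concentration producing complete growth inhibition.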

What was measured:
Test in all cases: DTP human tumour cell line panel, 48 h
SNB-75 CNS = tested on: SNB-75 CNS
MALME-3M melanoma = tested on: MALME-3M melanoma
HS 578T breast = tested on: HS 578T breast
SK-MEL-5 melanoma = tested on: SK-MEL-5 melanoma
M14 melanoma = tested on: M14 melanoma
SK-OV-3 ovarian = tested on: SK-OV-3 ovarian
HCC-2998 colon = tested on: HCC-2998 colon
OVCAR-8 ovarian = tested on: OVCAR-8 ovarian
NCI/ADR-RES ovarian = tested on: NCI/ADR-RES ovarian
MCF7 breast = tested on: MCF7 breast

SMILES | GI50 (SNB-75 CNS) [µM] | TGI (SNB-75 CNS) [µM] | GI50 (MALME-3M melanoma) [µM] | TGI (MALME-3M melanoma) [µM] | GI50 (HS 578T breast) [µM] | GI50 (SK-MEL-5 melanoma) [µM] | TGI (SK-MEL-5 melanoma) [µM] | GI50 (M14 melanoma) [µM] | TGI (M14 melanoma) [µM] | GI50 (SK-OV-3 ovarian) [µM] | TGI (SK-OV-3 ovarian) [µM] | GI50 (HCC-2998 colon) [µM] | TGI (HCC-2998 colon) [µM] | GI50 (OVCAR-8 ovarian) [µM] | TGI (OVCAR-8 ovarian) [µM] | GI50 (NCI/ADR-RES ovarian) [µM] | TGI (NCI/ADR-RES ovarian) [µM] | GI50 (MCF7 breast) [µM] | TGI (MCF7 breast) [µM] | TGI (HS 578T breast) [µM]
CCc1c2c(nc3cc4c(cc13)OCO4)-c1cc3c(c(=O)n1C2)COC(=O)[C@@]3(CC)OC(=O)CN | < 0.01 | < 0.045 | < 0.015 | 1.43 | 0.13 | < 0.01 | 0.037 | < 0.01 | < 0.0247 | < 0.01 | < 0.0185 | < 0.0112 | 0.194 | < 0.01 | 0.131 | < 0.01 | < 0.0104 | < 0.01 | < 0.0346 | 
CO[C@@H]1[C@@H](OC2OC(C)C(OC3CC(C)(O)C(OC(=O)CC(C)C)C(C)O3)C(N(C)C)C2O)[C@@H](CC=O)C[C@@H](C)C(=O)/C=C/C2O[C@H]2C[C@@H](C)OC(=O)C[C@H]1OC(C)=O (some centres undefined) |  | > 100 |  | 27.9 |  |  | 32.9 |  | 30 |  | > 100 |  | 32 |  | > 100 |  | 98.9 |  | 30.7 | > 100
O=C1c2ccccc2C(=O)N1c1ccc(S(=O)(=O)Nc2ncccn2)cc1 | > 100 | > 100 | > 100 | > 100 | > 100 | > 100 | > 100 | > 100 | > 100 | > 100 | > 100 | 22.7 | > 100 | > 100 | > 100 | > 100 | > 100 | > 100 | > 100 | > 100
CC(=O)OC1COC(S[As](C)C)C(OC(C)=O)C1OC(C)=O (centres undefined) | 3.49 | 21.7 | 0.0159 | 0.287 | 0.344 | 0.0658 | 0.253 | < 0.0419 | 1.1 | 1.81 | 17.3 | 0.333 | 0.922 | 0.735 | 5.31 | 0.155 | 0.974 | 0.165 | 5.2 | 0.916
C(=C1c2ccccc2-c2ccccc21)c1ccccn1 | 16 | > 100 | 3.61 | 27 | 6.21 | 11.5 | 26.5 | 4.06 | 18.2 | 13.1 | 64.9 | 13 | 46.3 | 15.6 | 77.8 | 3.86 | 31 | 2.71 | 21.3 | 28.5
COC(=O)CCC(=O)c1c(C)[nH]c(/C=C2\N=C(c3ccc[nH]3)C=C2OC)c1C | 0.971 | 3.51 | 1.49 | 3.47 | 1.35 | 0.567 | 1.71 | 0.431 | 1.91 | 6.16 | 13.8 | 1.41 | 5.84 | 0.754 | 2.23 | 0.728 | 3.66 | 0.567 | 2.03 | 4.07
COc1ccc2c(c1)c(C1(c3cn(C)c4ccc(OC)cc34)C(=O)Nc3ccc(F)cc31)cn2C | 3.09 | > 100 | 6.52 | 89.5 | 9.01 | 5.64 | 18.9 | 4.19 | 68.8 | 12.9 | > 100 | 4.53 | > 100 | 4.28 | > 100 | 4.66 | > 100 | 3.61 | > 100 | > 100
COCCOC(=O)C1=C(C)NC2=C(C(=O)CC(c3ccccc3OC)C2)C1c1cccc(O)c1 (centres undefined) | 2.43 | 30.9 | 13.9 | 47.6 | 2.04 | 3.54 | 16.6 | 11.8 | 39.5 | 7.77 | 32.5 | 12.2 | 27 | 11.3 | 34.9 | 35.9 | > 100 | 4.31 | 72.4 | > 26.2
CCC(Sc1nnc2c3ccccc3n(CC)c2n1)C(=O)Nc1ccccc1OC (centres undefined) | 10.8 | > 100 | > 100 | > 100 | > 100 | 60.8 | > 100 | > 100 | > 100 | > 100 | > 100 | > 100 | > 100 | > 100 | > 100 | > 100 | > 100 | > 89.9 | > 100 | > 100
O=C1C=C(Nc2ccccc2C(=O)CC(=O)C(=O)Nc2cccc(C(F)(F)F)c2)c2ccccc2C1=O |  | > 96.9 |  | 28.7 |  |  | 30.8 |  | 31.7 |  | > 100 |  | > 78 |  | 56.4 |  | 49.5 |  | 28.9 | 66.2
O=C(COc1cccc(/C=C2\COc3ccccc3C2=O)c1)Nc1nccs1 | 12.2 | 24.6 | 1.82 | 3.49 | 2.67 | 5.27 | 19.5 | 1.85 | 3.71 | 17.4 | 31.1 | 1.95 | 3.48 | 3.4 | 11.2 | 4.97 | 21.8 | 1.24 | 5.69 | 10.9
O=C1OC(c2ccc(O)c(-c3ccccc3)c2)(c2ccc(O)c(-c3ccccc3)c2)c2c(Cl)c(Cl)c(Cl)c(Cl)c21 |  | > 100 |  | > 100 |  |  | > 100 |  | > 100 |  | > 100 |  | > 100 |  | > 100 |  | > 100 |  | > 100 | > 100
O=C1/C(=C/c2ccccc2Cl)N=C(c2ccccc2)N1Cc1ccco1 | 50.3 | > 100 | 16.6 | 36 | 72.8 | 17.9 | 36.3 | 18.6 | 38.2 | > 100 | > 100 | 43.2 | > 100 | > 100 | > 100 | > 100 | > 100 | 18.3 | > 100 | > 100
Nc1ccc2c(c1)C(=O)c1c(F)cccc1-2 |  | > 100 |  | > 100 |  |  | 95.1 |  | > 100 |  | > 100 |  | > 100 |  | > 100 |  | > 100 |  | 41.7 | > 100
